Each structure is given as a SMILES string.

Results on 18 compounds are retold here after the supplement of paper PMC5579334.

For experiment [1], the system named is HS-Sch-2. The experiment is described as follows: % inhibition of CellTiter-Glo viability at highest tested concentration (72 h), relative to DMSO and benzethonium chloride controls; higher = more inhibition. The procedure, abridged: (§1)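 MPNST cell lines and primary human Schwann cells (750–1000 cells per well) went into 384-well plates preprinted with each compound at five concentrations in 10-fold steps. Plates were incubated 72 h at 37 °C, 5% CO2. Viability was read as CellTiter-Glo ATP luminescence, scaled between vehicle and positive-control wells, with duplicates averaged where present. Percent inhibition is at the top concentration; drug sensitivity score and relative IC50 (censored at top concentration) come from four-parameter logistic fits.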

Experiment [2] has as its system HS-PSS. The experiment is described as above. In short, it runs like this:
as §1

Experiment [3] relates to YST-1. The experiment is described as above. In short, it runs like this: as §1
Experiment [4] deals with HS-PSS. The experiment in a line: drug sensitivity score (DSS, CellTox-Green cytotoxicity, 72 h) (DSS (dimensionless)); higher = more cytotoxic; extreme values may be limits of the assay. The procedure, abridged: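 MPNST cell lines and primary human Schwann cells were incubated 72 h at 37 °C in 384-well plates holding five 10-fold compound dilutions. CellTox-Green was added before seeding at a final 1:1000 dilution and reported fluorescence from DNA released by disrupted cells. Signals were scaled to vehicle and positive-control wells, and cultures failing plate quality control were dropped. Drug sensitivity score and relative IC50 come from four-parameter logistic fits, with IC50 censored at the top concentration.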

The subject of experiment [5] is HS-Sch-2. The experiment in a line: drug sensitivity score (DSS, CellTiter-Glo viability, 72 h) (DSS (dimensionless)); higher = more sensitive; extreme values may be limits of the assay. The procedure, abridged: as §1
(In general: In ATP-based viability assays light output follows the ATP content of the culture.)

The subject of experiment [6] is HS-PSS. The experiment is described as above. The procedure, abridged:
as §1

For experiment [7], the system named is YST-1. The experiment is described as above. In short, it runs like this:
as §1

On to `CC(C)(O)CC(=O)NCCn1ccc2ncnc(Nc3ccc(Oc4cccc(C(F)(F)F)c4)c(Cl)c3)c21` [TAK-285] (max concentration tested 2500 nM), for which the “% inhibition” value was -0.95% in the experiment with HS-Sch-2 [1], -2.72% in the experiment with HS-PSS [2] and 6.24% with YST-1 [3]. Further, the drug sensitivity score was 0 in the experiment on HS-PSS [4], 0 in the experiment with HS-Sch-2 [5], 0.89 with HS-PSS [6] and 0 in the experiment on YST-1 [7].
For the compound `N#Cc1c(Oc2ccc(F)c(NC(=O)Cc3cccc(C(F)(F)F)c3)c2)ccc2nc(NC(=O)C3CC3)sc12` [TAK-632] (max concentration tested 10000 nM), the “% inhibition” value with HS-Sch-2 [1] turned out to be 32.1%; in the experiment with HS-PSS [2], 37.5%; with YST-1 [3], 10.2%. Further, the drug sensitivity score came out at 0 in the experiment on HS-PSS [4], 1.14 in the experiment on HS-Sch-2 [5], 1.38 in the experiment on HS-PSS [6] and 0 in the experiment on YST-1 [7].
With `CCc1nc(-c2cccc(C)c2)c(-c2ccnc(NC(=O)c3ccccc3)c2)s1` [TAK-715] (max concentration tested 10000 nM), the “% inhibition” value worked out at 27.9% with HS-Sch-2 [1], 19.3% with HS-PSS [2] and 24% with YST-1 [3]. Further, the drug sensitivity score in the experiment with HS-PSS [4] is 0; in the experiment on HS-Sch-2 [5], 2.55; in the experiment with HS-PSS [6], 0.81; with YST-1 [7], 2.91.
Consider `COc1cc(C(=O)NC2CCN(C)CC2)c(F)cc1Nc1ncc2c(n1)N(C1CCCC1)CC(F)(F)C(=O)N2C` [TAK-960] (max concentration tested 2500 nM), for which the “% inhibition” value in the experiment with HS-Sch-2 [1] was 16.2%; in the experiment on HS-PSS [2], 11.9%; in the experiment with YST-1 [3], 2.44%. Further, the drug sensitivity score turned out to be 0 with HS-PSS [4], 0.18 in the experiment with HS-Sch-2 [5], 0 in the experiment on HS-PSS [6] and 0 in the experiment on YST-1 [7].
Regarding `Cc1cccc(-c2[nH]c(CNc3ccccc3F)nc2-c2ccc3ncnn3c2)n1` [TEW-7197] (max concentration tested 2500 nM), the “% inhibition” value with HS-Sch-2 [1] is 13.1%; in the experiment on HS-PSS [2], 23.2%; in the experiment on YST-1 [3], -10.6%. The drug sensitivity score in the experiment with HS-PSS [4] was 0; in the experiment on HS-Sch-2 [5] it was 0.08; in the experiment with HS-PSS [6], 1.89; in the experiment with YST-1 [7], 0.
As to `Nc1nc(N)c2nc(-c3cccc(O)c3)c(-c3cccc(O)c3)nc2n1` [TG100-115] (max concentration tested 10000 nM), the “% inhibition” value turned out to be 10.8% in the experiment on HS-Sch-2 [1], 9.07% in the experiment with HS-PSS [2] and 20.9% in the experiment on YST-1 [3]. Moreover, the drug sensitivity score in the experiment with HS-PSS [4] is 0; in the experiment on HS-Sch-2 [5], 0; in the experiment on HS-PSS [6], 0; in the experiment on YST-1 [7], 1.38.
With `NC(=O)Nc1sc(-c2ccc(F)cc2)cc1C(N)=O` [TPCA-1] (max concentration tested 25000 nM), the “% inhibition” value in the experiment on HS-Sch-2 [1] is 17.7%; in the experiment on HS-PSS [2], 41%; with YST-1 [3] it was 46.1%. In addition, the drug sensitivity score with HS-PSS [4] was 0; in the experiment on HS-Sch-2 [5], 1.36; with HS-PSS [6], 3.59; in the experiment on YST-1 [7], 3.91.
With `Clc1ccccc1C(c1ccccc1)(c1ccccc1)n1cccn1` [TRAM-34] (max concentration tested 1000 nM), the “% inhibition” value with HS-Sch-2 [1] is 15.5%; in the experiment with HS-PSS [2] it was 13.4%; in the experiment with YST-1 [3], 3.42%. Further, the drug sensitivity score came out at 0 in the experiment with HS-PSS [4], 0.38 in the experiment on HS-Sch-2 [5], 0.59 in the experiment on HS-PSS [6] and 0 in the experiment with YST-1 [7].
As to `Cn1ncnc1[C@H]1c2n[nH]c(=O)c3cc(F)cc(c23)N[C@@H]1c1ccc(F)cc1` [Talazoparib] (max concentration tested 1000 nM), the “% inhibition” value was determined as 25.4% with HS-Sch-2 [1], 21.9% in the experiment with HS-PSS [2] and 61.3% with YST-1 [3]. Further, the drug sensitivity score was 0 in the experiment with HS-PSS [4], 1.84 with HS-Sch-2 [5], 3.37 in the experiment with HS-PSS [6] and 15.5 in the experiment on YST-1 [7].
With `C[C@@H]1CN(Cc2ccc(F)cc2)[C@@H](C)CN1C(=O)c1cc2c(C(=O)C(=O)N(C)C)cn(C)c2cc1Cl` [Talmapimod] (max concentration tested 10000 nM), the “% inhibition” value in the experiment on HS-Sch-2 [1] is -10%; in the experiment with HS-PSS [2], 13.9%; in the experiment with YST-1 [3], 37.4%. The drug sensitivity score in the experiment with HS-PSS [4] was 0; in the experiment with HS-Sch-2 [5], 0; in the experiment on HS-PSS [6], 0.11; with YST-1 [7], 6.19.
`O[C@H]1CC[C@H](Nc2ncc3nc(Nc4c(F)cc(F)cc4F)n([C@H]4CCOC4)c3n2)CC1` [Tanzisertib] (max concentration tested 10000 nM): the “% inhibition” value with HS-Sch-2 [1] was -2.81%; in the experiment on HS-PSS [2], -0.16%; in the experiment with YST-1 [3], 11.6%. The drug sensitivity score in the experiment on HS-PSS [4] came out at 0; in the experiment with HS-Sch-2 [5], 0; in the experiment on HS-PSS [6], 0; in the experiment with YST-1 [7], 1.56.
As to `Cc1nc(-c2cn3c(n2)-c2ccc(-c4cnn(C(C)(C)C(N)=O)c4)cc2OCC3)n(C(C)C)n1` [Taselisib] (max concentration tested 1000 nM), the “% inhibition” value with HS-Sch-2 [1] is 18.1%; with HS-PSS [2] it was 26.4%; in the experiment with YST-1 [3] it was 66.6%. Besides, the drug sensitivity score in the experiment on HS-PSS [4] came to 0; in the experiment with HS-Sch-2 [5], 0.87; in the experiment with HS-PSS [6], 0.7; with YST-1 [7] it was 11.9.
As for `COc1cccc2c1c(O)c(C(=O)N(C)c1ccc(C(F)(F)F)cc1)c(=O)n2C` [Tasquinimod] (max concentration tested 10000 nM), the “% inhibition” value in the experiment on HS-Sch-2 [1] came out at 8.66%; in the experiment on HS-PSS [2], 11.8%; in the experiment with YST-1 [3] it was 20.7%. Besides, the drug sensitivity score with HS-PSS [4] stood at 0; with HS-Sch-2 [5] it was 0; in the experiment with HS-PSS [6], 0.69; in the experiment on YST-1 [7], 3.88.
On to `CCN(c1cc(-c2ccc(CN3CCOCC3)cc2)cc(C(=O)NCc2c(C)cc(C)[nH]c2=O)c1C)C1CCOCC1` [Tazemetostat] (max concentration tested 10000 nM), for which the “% inhibition” value turned out to be 12.6% with HS-Sch-2 [1], 10.9% with HS-PSS [2] and 0.37% with YST-1 [3]. The drug sensitivity score was 0 in the experiment with HS-PSS [4], 0.07 in the experiment on HS-Sch-2 [5], 0.52 in the experiment with HS-PSS [6] and 0 with YST-1 [7].
For the compound `CNC(=O)c1cc(COc2nnc(Nc3ccc(Cl)cc3)c3ccoc23)ccn1` [Telatinib] (max concentration tested 10000 nM), the “% inhibition” value with HS-Sch-2 [1] was determined as 8.79%; in the experiment on HS-PSS [2], 5.71%; in the experiment on YST-1 [3] it was 6.98%. The drug sensitivity score in the experiment on HS-PSS [4] was found to be 0; with HS-Sch-2 [5], 0; with HS-PSS [6] it was 0; with YST-1 [7], 0.77.
Take `Cn1nnc2c(C(N)=O)ncn2c1=O` [Temozolomide] (max concentration tested 100000 nM): the entries for the “% inhibition” value in the experiment with HS-Sch-2 [1], in the experiment with HS-PSS [2] and with YST-1 [3] were 20.4%, 8.55% and 11.6%, respectively. Moreover, the drug sensitivity score amounted to 0 in the experiment with HS-PSS [4], 1.67 with HS-Sch-2 [5], 0 with HS-PSS [6] and 0.08 in the experiment with YST-1 [7].
On to `O=c1sn(-c2cccc3ccccc23)c(=O)n1Cc1ccccc1` [Tideglusib] (max concentration tested 3000 nM), for which the entries for the “% inhibition” value in the experiment on HS-Sch-2 [1], in the experiment with HS-PSS [2] and in the experiment with YST-1 [3] were 2.01%, 6.62% and 3.93%, respectively. For the same compound, the drug sensitivity score in the experiment on HS-PSS [4], in the experiment with HS-Sch-2 [5], with HS-PSS [6] and in the experiment with YST-1 [7] was 0 in each case.
As for `Cc1cc(Nc2cc(N3CCN(C)CC3)nc(Sc3ccc(NC(=O)C4CC4)cc3)n2)n[nH]1` [Tozasertib] (max concentration tested 10000 nM), the “% inhibition” value in the experiment on HS-Sch-2 [1] was 61.5%; in the experiment on HS-PSS [2], 31.3%; with YST-1 [3] it was 45.5%. For the same compound, the drug sensitivity score in the experiment with HS-PSS [4] stood at 0; in the experiment on HS-Sch-2 [5], 8.18; in the experiment on HS-PSS [6], 4.85; with YST-1 [7] it was 12.9.

One may read the % inhibition as the drop in the measured response relative to a control, in per cent.
